Legend:
[1] = system: allogenic skin graft (WKAH rat to F344 rat); test: Allogenic skin graft in rats, WKAH rat skin to F344 rat; format: in vivo; conditions: oral; for mean survival time of skin graft: once a day for 14 days, dose 1 mg/kg or 10 mg/kg (FIG. 1), not stated which
Excerpt: (§1) A full-thickness skin graft (1.5×1.5 cm) of a 4-week-old male WKAH rat or LEW rat is grafted to a graft to a graft bed on the back of a 4-week-old male F344 rat by suture. The graft is covered with a sterile gauze and bound. The bandage is removed 5 days after the grafting and the skin graft is observed daily until it is rejected. […] The number of days from the grafting to rejection is taken as a graft survival days. Test compounds are intraperitoneally, intravenously or orally administered repeatedly once a day for 14 days.
The comparative compound 1 was 2-amino-2-(2-(4-(4-phenylbutyloxy)phenyl)ethyl)propane-1,3-diol disclosed in WO94/08943, comparative compound 2 was 2-amino-2-methyl-2-(2-(4-(4-phenylbutyloxy)phenyl)butanol disclosed in WO96/06068.

[2] = system: allogenic skin graft (LEW rat to F344 rat); test: Allogenic skin graft in rats, LEW rat skin to F344 rat; format: in vivo
Excerpt: EXPERIMENTAL EXAMPLE 12 (Prolonging effect of skin graft on allogenic skin graft in rats)
as §1

[3] = Body weight change on allogenic skin graft in rats; format: in vivo, rat; conditions: 13 days of consecutive repeat oral administration of 10 mg/kg, rats of allogenic skin graft test (FIG. 2)
Description: (Body weight change on allogenic skin graft in rats)
The changes in body weight in rats of Experimental Example 12 on testing of allogenic skin graft in rats, after 13 days of consecutive repeat oral administration of 10 mg/kg of test compounds are shown in FIG. 2.

| Compound | prolonging effect on graft survival compared with comparative compound 2 [1] | prolonging effect on graft survival days compared to control group and comparative compound 1 group [1] | mean survival time of skin graft [1] | prolonging effect on graft survival compared to control group administered with vehicle alone [2] | mean survival time of skin graft ([2]; dose not stated) | change in body weight [3] |
| --- | --- | --- | --- | --- | --- | --- |
| NC(CO)(CO)CCc1ccc(C(=O)CCCCc2ccccc2)cc1 [Compound (I-a), 2-amino-2-(2-(4-(1-oxo-5-phenylpentyl)phenyl)ethyl)propane-1,3-diol] | equivalent prolonging effect | prolonged graft survival days statistically significantly | 16.6 ± 1.2 days | statistically significant prolonging effect | ≥ 20 days | natural gain of body weight as in the control group |
| NC(CO)(CO)CCc1ccc(OCCCCc2ccccc2)cc1 [comparative compound 1, 2-amino-2-(2-(4-(4-phenylbutyloxy)phenyl)ethyl)propane-1,3-diol, reference compound] | – | – | 11.9 ± 0.7 days | – | – | a suppressive effect on the gain of the body weight |
| CC(N)(CO)CCc1ccc(OCCCCc2ccccc2)cc1 (stereo not shown) [comparative compound 2, reference compound] | – | – | 15.6 ± 1.4 days | – | – | a suppressive effect on the gain of the body weight |

Source: patent USRE39072E1, “2-aminopropane-1,3-diol compounds, medicinal use thereof, and intermediates in synthesizing the same” (Mitsubishi Pharma Corporation, priority 1997, dated 2006)
